Each block holds one molecule with its values, some of them ahead of it.
Experiments:
[1] = system: IFN-β expression in HEK293 cells; assay: HEK293 real-time qPCR for IFN-β; conditions: 4 μM 2′,3′-cGAMP 3 h, positive control
Protocol: IFN-β expression levels were measured using real-time qPCR.
HEK293 cells were seeded at 700,000 cells per 60 mm plate confluency and treated 36 h later.

[2] = target: T1, hSTING CTD (STING R232 variant) (Homo sapiens, UniProt Q86WV6, H232R); assay: Microscale thermophoresis; type: binding; conditions: for Activity in MST assay: competition with 2′,3′-cGAMP
T1 construct: 6X-His tagged hSTING^WT, R232 variant, CTD protein was purchased; purchased Invivogen (USA) or Cayman Chemicals (USA)
Protocol: Small molecule affinities at subpicomolar concentrations are typically difficult to determine by MST due to the inability of the detector to measure differential movement of proteins when largely disproportionate ratios of protein to ligand are involved. […] Generally, an IC50 correlates well with a K D when a small molecule competes for binding with a natural substrate for a target protein.
The resulting mixture was centrifuged at 12,000 x RPM 10 min prior to use. […] The samples were run again at 30- and 45 min. Detection of the protein was performed using the blue detection channel with excitation power set to 100% and MST set to high allowing 3 s prior to MST on to check for initial fluorescence differences, 35 s for thermophoresis, and 3 s for regeneration after MST off. Analysis was performed using M.O. Affinity Analysis Software with difference between initial fluorescence measured in the first 5 s as compared with thermophoresis at 30 s at 16 different analyte concentrations ranging from 100 μM to 100 zM and exported into Graphpad Prism v.8 using a Log inhibitor versus response for parameter fit.

[3] = system: p-IRF3 in HEK293S cells (hSTING pathway); assay: Phospho-IRF3 Western blot in HEK293S cells with diABZI3; type: cell-based, human; conditions: 100 fM compound, 100 nM diABZI3, preliminary
Protocol: HEK293T cells transfected with hSTINGWT cells were seeded in a 6-well plate in DMEM
(supplemented with 10% heat-inactivated fetal bovine serum, 1X Corning Penicillin-Streptomycin
solution and 0.01mg/mL Blasticidin). Upon reaching ~80% confluence, cells were pretreated with
varying concentrations of CXL in FBS-free DMEM for 2 hours. This was followed by treatment
with diABZI3 (100nM) for 1 hour. The cells were scraped, harvested by centrifugation at 1000 x g
for 3 mins. The resulting pellet is resuspended in 1X PBS with 1X Halt protease & phosphatase
inhibitor and 1% NP-40. Cell lysis was performed by probe sonication. The cell lysate is further
denatured in 1X SDS loading buffer by boiling for 10 mins and separated by SDS-PAGE (4-20%
gel). The separated proteins were electrically transferred to a PVDF membranes separately,
which was probed with primary (α-pIRF3, α-IRF3 & α-STING) and secondary (goat anti-rabbit IR
dye 680 & goat anti-mouse IR dye 800CW) antibodies. The blots were visualized using a LICOR
Image Analyzer. All the experiments were performed at least in duplicate.

SUMO-hSTING CTD [4] = target: T2, SUMO-hSTING CTD (Homo sapiens, UniProt Q86WV6, H232R); assay: Dynamic light scattering of STING oligomerization; conditions: 50 nM STING CTD; S-isomer up to 500 fM; reviewer's reading
Protocol: (B) DLS was performed for 2 h (n = 960 measurements) with 50 nM STING exposed to analytes. […] Blue blocks indicate size counts as a percentage to overall mass over selected mass ranges. […] Measurements were made using a Malvern Zetasizer Nano ZS set to 40 measurements at 1 s/measurement and 24 runs.

His-hSTING CTD = target: T3, His-hSTING CTD (Homo sapiens, UniProt Q86WV6, H232R); assay: Surface plasmon resonance; type: binding; conditions: read-out: KD (SPR)
T3 construct: purchased Invivogen (USA) or Cayman Chemicals (USA)
Protocol: SPR was employed for binding measurements using the His-tagged hSTING^WT CDN domain. A GE Healthcare Biacore T200 was equipped with a Ni-NTA chip. […] The sensorgrams were analyzed using Biacore T200 Software 3.0 and steady state was measured at 4 s before injection stop, exported into Graphpad, and fit versus concentration using a one site specific binding model to calculate the apparent equilibrium dissociation constant (K D). Where appropriate, kinetics were measured using a 1:1 Langmuir binding model with R max set to local to obtain the association rate (K on), dissociation (K off)

SUMO-hSTING CTD [5] = target: T2, SUMO-hSTING CTD; assay: Isothermal titration calorimetry; type: binding; parameters: human STING (amino acid 155–343) was synthesized and subcloned into pET28a vector; made in house; host or cells: E. coli BL21(DE3)
From the text: In order to further explore the interaction between CXL and hSTING CTD, we employed Isothermal calorimetry (ITC) to measure the heat evolved accompanying CXL’s effect on SUMO-hSTING^WT CTD. […] In Figure A, we show the ITC data we obtained. […]. […] In Figure B, we also find that the binding isotherm is far from steady state or equilibrium, and thus, we could not obtain reliable thermodynamic parameters. Nonetheless, a significant amount of heat was released in the process of CXL interacting with the hSTING CTD. On the other hand, we were most interested in ITC measurements taken at femtomolar concentrations, given the biophysical experiments and in cellulo studies already described. Initial experiments treating the hSTING CTD with femtomolar concentrations of CXL were unsuccessful, likely due to the insensitivity of the instrument. […]. MicroCal ITC200 instrument (Malvern Pananalytical) was used to assess STING and CXL interactions. Both recombinantly purified STING domains (residues 155–343) containing a SUMO tag and CXL were buffer-exchanged and made in the same buffer composition, respectively, to avoid buffer mismatch. The same buffer cocktail was used in all ITC experiments, containing 25 mM HEPES (pH, 7.4), 150 mM NaCl, 5% glycerol, 0.5 mM TCEP, and 5% DMSO. STING protein from −80 °C aliquots was spun down at 12,000 RPM for 5–10 min before each run to remove any aggregates, diluted into the ITC buffer above (either as 40 μM STING alone or as 40 μM STING plus 20 μM 2,3-cGAMP), and loaded into the cell. CXL at various concentrations for different experiments was loaded into the syringe (Hamilton). For the control and reference, an ITC buffer devoid of CXL was used. ITC experiments were conducted at 25 °C using an initial 0.4 μL injection and 19 subsequent injections of 2 μL each at 150 s intervals. Heat of dilution (differential power) of the 19 injections resulting from the binding event was fitted into the nonlinear least-squares equation incorporated in the MicroCal ITC200 analysis software. The K D and other thermodynamic parameters were derived from curve fitting using MicroCal software.

STING CTD = target: STING CTD; parameters: method as in not given; conditions: ref not given; read-out: KD previously reported (ITC); cited from earlier work
STING = system: STING; parameters: method as in Ergun et al.; conditions: ref Ergun et al., cited from earlier work
[6] = target: the molecule itself; assay: dynamic light scattering; 50 nM STING with 50 nM 2′,3′-cGAMP and a titrated range of analyte (CXL, CXN, H-151), HBS-P pH 7.4, 2 h
[7] = 500 μM c-diGMP to 40 μM hSTING CTD

T1 sequence (Q86WV6 153-340 H232R): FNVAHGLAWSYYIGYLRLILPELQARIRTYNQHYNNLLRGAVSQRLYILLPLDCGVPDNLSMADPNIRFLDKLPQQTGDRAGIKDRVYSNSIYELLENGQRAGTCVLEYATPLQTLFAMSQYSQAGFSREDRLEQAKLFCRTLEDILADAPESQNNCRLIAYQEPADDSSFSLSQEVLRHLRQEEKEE
T2 sequence (Q86WV6 155-343 H232R): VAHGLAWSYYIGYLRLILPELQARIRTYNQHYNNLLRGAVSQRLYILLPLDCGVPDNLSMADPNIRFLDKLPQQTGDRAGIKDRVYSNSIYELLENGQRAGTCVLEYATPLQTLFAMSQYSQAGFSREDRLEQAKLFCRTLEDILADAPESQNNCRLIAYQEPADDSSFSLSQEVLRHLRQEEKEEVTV
T3 sequence (Q86WV6 153-340 H232R): as the sequence (Q86WV6 153-340 H232R) above

Molecule: Nc1nc2c(ncn2C2OC3COP(=O)(O)OC4C(COP(=O)(O)OC2C3O)OC(n2cnc3c(N)ncnc32)C4O)c(=O)[nH]1 (stereo not drawn) [2′,3′-cGAMP, cyclic guanosine-(2′→5′)-monophosphate-adenosine-(3′→5′)-monophosphate, reference compound]
- Induction of IFN-β production [1]: 7.4 fold

- Activity in MST assay [2]: subfemtomolar activity
- Effect of enantiomers on protein aggregate size (SUMO-hSTING CTD [4]): slightly less potent
Molecule: Cc1c(Cl)cccc1Nc1ncccc1C(=O)OC[C@H](O)CO (single isomer, unassigned) [R-enantiomer, R-clonixeril]
- Effect on p-IRF3 [3]: agonistic

- KD (Table S1, Thermophoresis) ([2]; +50 nM 23cGAMP): No shift
Molecule: Cc1cccc(Nc2ccccc2C(=O)OCC(O)CO)c1C (stereo not drawn) [MFE, mefenamic acid glycerol ester]
- Activity in MST assay [2]: no indication of activity at any concentration below 1 μM

- Activity in MST assay [2]: an effect at higher concentrations
- Effect of enantiomers on protein aggregate size (SUMO-hSTING CTD [4]): no effect
Molecule: Cc1c(Cl)cccc1Nc1ncccc1C(=O)OC[C@@H](O)CO (single isomer, unassigned) [S-enantiomer, S-clonixeril]
- Effect on p-IRF3 [3]: no effect

- Kd (His-hSTING CTD): 4780 ± 1650 nM
- ΔH0 (ITC) (SUMO-hSTING CTD [5]; [7]): -24.6 kcal/mol
- ΔS0 (ITC) (SUMO-hSTING CTD [5]; [7]): −56.5 cal/mol/deg
- Kd (SUMO-hSTING CTD [5]; read-out: KD (ITC)): 2170 nM
Molecule: Nc1nc2c(ncn2C2OC3COP(=O)(O)OC4C(COP(=O)(O)OC3C2O)OC(n2cnc3c(=O)[nH]c(N)nc32)C4O)c(=O)[nH]1 (stereo not drawn) [c-diGMP, cyclic di-GMP, reference compound]
- Kd (STING CTD): 3700 nM
- Hill coefficient for STING activation (STING): 2.6
- IC50 (STING; read-out: IC50 for inhibition of the action of 2′,3′-cGAMP): ~800 nM

Molecule: Cc1c(Cl)cccc1Nc1ncccc1C(=O)OCCCCOC(=O)c1cccnc1Nc1cccc(Cl)c1C [Compound 14]
- Activity in MST assay [2]: quite active

B1: His-SUMO-TEV-hSTING CTD (domain or fragment, human, UniProt Q86WV6 155-343, looked up)
chain: VAHGLAWSYYIGYLRLILPELQARIRTYNQHYNNLLRGAVSQRLYILLPLDCGVPDNLSMADPNIRFLDKLPQQTGDHAGIKDRVYSNSIYELLENGQRAGTCVLEYATPLQTLFAMSQYSQAGFSREDRLEQAKLFCRTLEDILADAPESQNNCRLIAYQEPADDSSFSLSQEVLRHLRQEEKEEVTV
notes: human STING (stimulator of interferon genes), C-terminal domain, amino acids 155-343, wild type (R232) allele; a TEV site lies between SUMO and STING by the construct's name; Synthetic gene in pET28a; also called SUMO-hSTING CTD; SUMO-hSTING^WT CTD; source: E. coli BL21(DE3), purified (Ni-NTA); not shown: His6, N-terminal, kept; SUMO, N-terminal, kept
- binding result [6]: binds
